In patent EP0181109B1, “N6-benzopyrano- and benzothiopyrano-adenosines” (WARNER-LAMBERT COMPANY, priority 1984, dated 1986):

Tests used:
adenosine A2 receptor = target: T1, adenosine A2 receptor (Rattus norvegicus, UniProt P30543); assay: Adenosine Receptor Binding - A2 Receptor Affinity (RBA2), [3H]NECA displacement in striatal membranes; settings: 4 nM [3H]NECA, 50 nM N6-cyclopentyladenosine, 60 minutes at 25°C, read-out: RBA-2 (IC50, A2 receptor affinity)
T1 construct: Brains were thawed and then kept on ice while the striata were dissected out; tissue Pel-Freez (Rogers, Arkansas); host or cells: rat striatum (membranes)
Procedure: Brains from 200-500 g mixed sex Sprague-Dawley rats were purchased from Pel-Freez (Rogers, Arkansas). Fresh brains from male Long-Evans hooded rats (Blue Spruce Farms, Altamont, NY) gave essentially identical results. Brains were thawed and then kept on ice while the striata were dissected out. Striata were disrupted in 10 vol of ice-cold 50 mM Tris·HCl (pH 7.7 at 25°C, pH 8.26 at 5°C) (Tris) for 30 seconds in a Polytron PT―10 (Brinkmann) at setting 5. The suspension was centrifuged at 50,000 xg for ten minutes, the supernatant discarded, the pellet resuspended in 10 vol ice-cold Tris as above, recentrifuged, resuspended at 1 g/5 ml, and stored in plastic vials at -70°C (stable for at least six months). When needed, tissue was thawed at room temperature, disrupted in a Polytron, and kept on ice until used.
All incubations were for 60 minutes at 25°C in 12 x 75 mm glass tubes containing 1 ml Tris with 5 mg original tissue weight of rat weight of rat striatal membranes, 4 nM [^3H]-N-ethyl adenosine-5'-carboxamide ([^3H]NECA), 50 nM N^s-cyclopentyladenosine (to eliminate A1 receptor binding), 10 mM MgCI2, 0.1 units/ml of adenosine deaminase and 1% dimethylsulfoxide. N^6-Cyclopentyladenosine was dissolved at 10 mM in 0.02 N HCI and diluted in Tris. Stock solutions and dilutions of N^6-cyclopentyladenosine could be stored at -20°C for several months. Test compounds were dissolved at 10 mM in dimethylsulfoxide on the same day as the experiment, and diluted in dimethylsulfoxide to 100x the final incubation concentration. Control incubations received an equal volume (10 µl) of dimethylsulfoxide; the resulting concentration of dimethylsulfoxide had no effect on binding. [^3H]NECA was diluted to 40 nM in Tris. The membrane suspension (5 mg/0.79 ml) contained sufficient MgC12 and adenosine deaminase to give 10 mM and 0.1 units/ml, respectively, final concentration in the incubation. […] After all additions, the rack of tubes was vortexed, and the tubes were then incubated for 60 min at 25°C in a shaking water bath. The rack of tubes was vortexed an additional time halfway through the incubation.
Incubations were terminated by filtration through 2.4 cm GF/B filters under reduced pressure. Each tube was filtered as follows: the contents of the tube were poured onto the filter, 4 ml of ice-cold Tris were added to the tube and the contents poured onto the filter, and the filter was washed twice with 4 ml of ice-cold Tris. The filtration was complete in about 12 seconds. Filters were put in scintillation vials, 8 ml of Formula 947 scintillation fluid added, and the vials left overnight, shaken, and counted in a liquid scintillation counter at 40% efficiency.
Nonspecific binding was defined as binding in the presence of […] N^6-cyclopentyladenosine, and specific binding was defined as total binding minus nonspecific binding. The IC50 was calculated by weighted nonlinear least squares curve-fitting to the mass action equation. [formula] • where Y is cpm bound • T is cpm total binding without drug • S is cpm specific binding without drug • D is the concentration of drug • and K is the IC50 of the drug Weighting factors were calculated under the assumption that the standard deviation was proportional to the predicted value of Y. Nonspecific binding was treated as a very large (infinite) concentration of drug in the computer analysis.

conscious rat = assay: Antihypertensive evaluation (AHP3): direct monitoring of aortic blood pressure and heart rate from conscious rats; format: in vivo
Procedure: This test procedure is described in the following paragraphs.
The continuous monitoring of pulsatile blood pressure (BP) from unrestrained conscious rats surgically equipped with polyethylene cannulas was accomplished by means of a computer assisted data capture scheme (CADCS). The basic elements of the methodology are the cannulation procedure and the CADCS.
Cannulation Procedure: Rats were anesthetized with Telazol (1:1 tiletamine HCI and zolazepam HCI); 20-40 mg/kg IM and the descending aorta exposed via a midline incision. Cannulas fabricated from polyethylene tubing were inserted into the aorta via an undersized puncture hole below the renal arteries. The puncture hole was made by a 23 G disposable needle with a section of the aorta clamped off above and below the puncture site. The cannulas, consisting of a PE100 (0.86 mm ID) body and a PE50 (0.58 mm ID) tip, were attached to a trocar, inserted through the psoas muscle, and passed subcutaneously along the midline of the back and externalized between the ears. The cannulas were anchored to the psoas muscle and between the scalulae (3-0 green braided suture). The midline incision was closed in two steps (muscle first, skin second) using continuous over-and over sutures (4-0 chronic). Each rat was then given penicillin 30,000 units subcutaneously (Penicillin G Procaine Sterile Suspension).
The rats were fitted with a harness-spring-swivel assembly designed to protect the cannula and to provide the rat relative freedom of movement. The harnesses were fabricated from nylon hook and loop tape cemented to a metal plate to which spring wires (18-8 stainless steel), were attached to brass swivels. Each polyethylene cannula was channeled through a spring and connected through a swivel to a pressure transducer (Model P23Gb; Statham Instruments; Hato Rey, Puerto Rico) and an infusion pump (Sage model 234-7; Orion Research, Cambridge, MA) by means of PE100 tubing. While on test, each rat received a continuous slow infusion of heparinized saline solution (approximately 400 I or 40 units of heparin per 24 hour period) to prevent clot formation. Additional "flushes" of the cannula with heparinized saline were carried out when the aortic pulse pressure (systolic minus diastolic) was less than 25 mm Hg.
CADCS: The pulsatile blood pressure and heart rate of each of 32 rats was monitored every minute by means of two in-laboratory microcomputers communicating directly with a data concentrator computer. The data were first stored on the data concentrator disk and the transferred to a magnetic tape for analysis and report generation by the main research computer. The overall scheme involved modulating the primary signal from the pressure transducer, generating the primary data set of the one-minute values for systolic, diastolic, and mean blood pressures and heart rate by the in-lab microcomputer and the storage, analysis, and report generation by the main research computer.
The transducers were connected to analog signal conditioning modules. The modules provided a regulated excitation voltage for the transducers, amplification as required to interface the microprocessors and an active low pass filter to compensate for the pressure wave form distortion produced by the fexible, fluid filled, narrow cannula. The distortion was 22-26 Hz and this provided a reliable estimate of both systolic and diastolic blood pressure.
The microcomputers (one for each of the two groups of 16 rats) were connected to the input components through the module interface units, an analog-to-digital converter for the pressure wave form signal and the digital inputs for the dose and event marker switches. The microcomputer controlled the sequential acquisition of data from the modular interface units through an internal synchronous time-of- day clock/time base generator. […]

[1] = 10 mg/kg, Hour 5, conscious rat
[2] = 10 mg/kg, Hour 3, conscious rat

T1 sequence (P30543 whole entry): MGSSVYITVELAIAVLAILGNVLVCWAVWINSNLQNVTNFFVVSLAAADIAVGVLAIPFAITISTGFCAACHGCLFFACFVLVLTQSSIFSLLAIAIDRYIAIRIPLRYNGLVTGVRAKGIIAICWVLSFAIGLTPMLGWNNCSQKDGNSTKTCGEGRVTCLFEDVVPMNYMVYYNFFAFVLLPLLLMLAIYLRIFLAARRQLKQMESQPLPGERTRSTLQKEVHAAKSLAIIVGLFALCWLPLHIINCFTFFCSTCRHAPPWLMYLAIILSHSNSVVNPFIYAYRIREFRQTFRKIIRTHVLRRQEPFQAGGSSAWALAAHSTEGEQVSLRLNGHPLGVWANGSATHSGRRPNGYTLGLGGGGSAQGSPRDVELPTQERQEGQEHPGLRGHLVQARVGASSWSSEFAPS

Row | SMILES | IC50 (adenosine A2 receptor) [nM] | other results
1 | C[C@H]1Oc2ccccc2C[C@@H]1Nc1ncnc2c1ncn2[C@@H]1O[C@H](CO)[C@@H](O)[C@H]1O (relative stereo) [Example 8, N^l-[trans-2-Methyl,-3-chromanylamino]adenosine] | 490 | 
2 | OC[C@H]1O[C@@H](n2cnc3c(NC4CCOc5ccccc54)ncnc32)[C@H](O)[C@@H]1O (stereo partly drawn) [Example 1] | 600 | 
3 | OC[C@H]1O[C@@H](n2cnc3c(NC4CSc5ccccc5C4)ncnc32)[C@H](O)[C@@H]1O (stereo partly drawn) [Example 2] | 340 | 
4 | COc1ccc2c(c1)OCC(Nc1ncnc3c1ncn3[C@@H]1O[C@H](CO)[C@@H](O)[C@H]1O)C2 (stereo partly drawn) [Example 3] | 1360 | 
5 | OC[C@H]1O[C@@H](n2cnc3c(NC4COc5ccccc5C4)ncnc32)[C@H](O)[C@@H]1O (stereo partly drawn) [Example 4, N^6-[3-Chromanylamino]adenosine] | 610 | 
6 | OC[C@H]1O[C@@H](n2cnc3c(NC4COc5c(Cl)cccc5C4)ncnc32)[C@H](O)[C@@H]1O (stereo partly drawn) [Example 5] | 210 | HR change (conscious rat; [1]): 0%
7 | COc1ccc2c(c1)CC(Nc1ncnc3c1ncn3[C@@H]1O[C@H](CO)[C@@H](O)[C@H]1O)CO2 (stereo partly drawn) [Example 6] | 1090 | 
8 | CC1Oc2ccccc2CC1Nc1ncnc2c1ncn2C1OC(CO)C(O)C1O (stereo not drawn) [Example 7, N^6-[cis-2-Methyl-3-chromanylamino]adenosine] | 1840 | 
9 | Cc1cc2c(cc1C)OCC(Nc1ncnc3c1ncn3[C@@H]1O[C@H](CO)[C@@H](O)[C@H]1O)C2 (stereo partly drawn) [Example 9, N^6-[6,7-Dimethyl-3-chromanylamino]adenosine] | 1240 | HR change (conscious rat; 10 mg/kg, Hour 7, conscious rat): 0%
10 | Cc1ccc2c(c1C)OCC(Nc1ncnc3c1ncn3[C@@H]1O[C@H](CO)[C@@H](O)[C@H]1O)C2 (stereo partly drawn) [Example 10, N^6-[7,8-Dimethyl-3-chromanylamino]adenosine] | 942 | HR change (conscious rat; 3 mg/kg, Hour 5, conscious rat): 0%
11 | Cc1ccc2c(c1C)OC(C)C(Nc1ncnc3c1ncn3[C@@H]1O[C@H](CO)[C@@H](O)[C@H]1O)C2 (stereo partly drawn) [Example 11] | 360 | HR change (conscious rat; [2]): 0%; HR change (conscious rat; [1]): 0%
12 | CC(C)(C)c1ccc2c(c1)OCC(Nc1ncnc3c1ncn3[C@@H]1O[C@H](CO)[C@@H](O)[C@H]1O)C2 (stereo partly drawn) [Example 13, N^6-[7-t-Butyl-3-chromanylamino)adenosine] | 2940 | 
13 | COc1cc(OC)c2c(c1)OC(C)(C)CC2Nc1ncnc2c1ncn2[C@@H]1O[C@H](CO)[C@@H](O)[C@H]1O (stereo partly drawn) [Example 14] | 37900 | MAP change (conscious rat; [2]): 0%
14 | OC[C@H]1O[C@@H](n2cnc3c(NC4CCSc5ccccc54)ncnc32)[C@H](O)[C@@H]1O (stereo partly drawn) [Example 15] | 86.5 | 
15 | O=S1(=O)CCC(Nc2ncnc3c2ncn3[C@@H]2O[C@H](CO)[C@@H](O)[C@H]2O)c2ccccc21 (stereo partly drawn) [Example 16, N^6-[4-Benzothiopyran-1,1-dioxideamino]adenosine] | 1390 | 
